Data published in publication PMC2865140 (Microbiology (Reading, England), 2009).

Tests used:
[1] = target: T1, AccD6 (carboxyltransferase beta subunit of ACCase 6) (Mycobacterium tuberculosis, UniProt P9WQH5); assay type: biochemical
T1 sequence (P9WQH5 1-473): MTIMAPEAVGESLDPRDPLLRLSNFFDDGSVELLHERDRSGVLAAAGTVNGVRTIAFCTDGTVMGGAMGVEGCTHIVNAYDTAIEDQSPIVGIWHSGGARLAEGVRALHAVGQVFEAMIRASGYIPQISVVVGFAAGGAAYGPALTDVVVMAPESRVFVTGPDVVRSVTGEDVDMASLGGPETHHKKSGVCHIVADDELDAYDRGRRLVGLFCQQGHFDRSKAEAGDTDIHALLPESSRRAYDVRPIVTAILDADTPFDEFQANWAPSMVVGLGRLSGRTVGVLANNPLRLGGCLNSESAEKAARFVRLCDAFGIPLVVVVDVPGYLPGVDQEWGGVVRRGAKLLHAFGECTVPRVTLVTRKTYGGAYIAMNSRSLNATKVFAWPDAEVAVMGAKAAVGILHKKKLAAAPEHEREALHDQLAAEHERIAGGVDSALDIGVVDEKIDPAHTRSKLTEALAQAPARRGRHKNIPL
T1 sequence (P9WPQ3 1-654 partner): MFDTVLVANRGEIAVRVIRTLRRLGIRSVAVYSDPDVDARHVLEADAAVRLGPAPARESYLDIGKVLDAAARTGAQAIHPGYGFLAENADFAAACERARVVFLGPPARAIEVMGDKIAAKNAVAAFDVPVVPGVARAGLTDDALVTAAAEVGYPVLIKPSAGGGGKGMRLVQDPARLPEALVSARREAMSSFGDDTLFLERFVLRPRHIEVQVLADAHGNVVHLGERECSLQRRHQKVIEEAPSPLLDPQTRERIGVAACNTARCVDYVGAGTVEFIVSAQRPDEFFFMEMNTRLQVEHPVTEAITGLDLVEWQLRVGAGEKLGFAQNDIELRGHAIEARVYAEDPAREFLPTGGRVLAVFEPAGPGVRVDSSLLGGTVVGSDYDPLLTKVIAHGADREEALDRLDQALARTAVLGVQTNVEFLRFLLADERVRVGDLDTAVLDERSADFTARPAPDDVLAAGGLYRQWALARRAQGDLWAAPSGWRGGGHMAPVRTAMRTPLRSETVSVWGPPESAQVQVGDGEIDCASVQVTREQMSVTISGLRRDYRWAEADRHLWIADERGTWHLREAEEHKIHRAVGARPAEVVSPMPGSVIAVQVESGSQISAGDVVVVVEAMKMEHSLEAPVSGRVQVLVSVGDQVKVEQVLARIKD

[2] = target: AccD5 (carboxyltransferase beta subunit of ACCase 5) (Mycobacterium tuberculosis, UniProt P9WQH7); assay type: biochemical
AccD5 (carboxyltransferase beta subunit of ACCase 5), sequence (P96890 2-600): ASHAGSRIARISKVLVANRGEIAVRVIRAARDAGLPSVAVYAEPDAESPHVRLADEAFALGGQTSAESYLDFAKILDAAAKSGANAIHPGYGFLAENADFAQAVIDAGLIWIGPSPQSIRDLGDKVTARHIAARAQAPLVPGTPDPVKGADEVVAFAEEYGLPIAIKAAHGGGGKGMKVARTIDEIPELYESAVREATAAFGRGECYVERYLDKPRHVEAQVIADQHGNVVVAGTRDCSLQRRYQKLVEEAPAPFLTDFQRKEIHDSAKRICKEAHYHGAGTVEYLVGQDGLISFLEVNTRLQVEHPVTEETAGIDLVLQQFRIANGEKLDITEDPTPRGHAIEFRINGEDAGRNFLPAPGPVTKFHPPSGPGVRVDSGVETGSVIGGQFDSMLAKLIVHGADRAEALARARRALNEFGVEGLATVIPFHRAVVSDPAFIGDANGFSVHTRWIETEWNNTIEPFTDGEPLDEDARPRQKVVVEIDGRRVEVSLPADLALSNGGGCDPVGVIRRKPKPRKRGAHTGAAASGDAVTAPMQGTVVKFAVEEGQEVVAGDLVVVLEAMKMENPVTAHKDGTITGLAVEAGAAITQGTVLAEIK
AccD5 (carboxyltransferase beta subunit of ACCase 5), sequence (P96886 whole entry, further chain): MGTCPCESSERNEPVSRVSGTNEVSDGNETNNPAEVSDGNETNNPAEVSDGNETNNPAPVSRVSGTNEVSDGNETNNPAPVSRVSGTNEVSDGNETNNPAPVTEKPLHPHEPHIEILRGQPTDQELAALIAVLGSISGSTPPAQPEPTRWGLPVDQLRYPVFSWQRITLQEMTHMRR
AccD5 (carboxyltransferase beta subunit of ACCase 5), sequence (P9WQH7 whole entry): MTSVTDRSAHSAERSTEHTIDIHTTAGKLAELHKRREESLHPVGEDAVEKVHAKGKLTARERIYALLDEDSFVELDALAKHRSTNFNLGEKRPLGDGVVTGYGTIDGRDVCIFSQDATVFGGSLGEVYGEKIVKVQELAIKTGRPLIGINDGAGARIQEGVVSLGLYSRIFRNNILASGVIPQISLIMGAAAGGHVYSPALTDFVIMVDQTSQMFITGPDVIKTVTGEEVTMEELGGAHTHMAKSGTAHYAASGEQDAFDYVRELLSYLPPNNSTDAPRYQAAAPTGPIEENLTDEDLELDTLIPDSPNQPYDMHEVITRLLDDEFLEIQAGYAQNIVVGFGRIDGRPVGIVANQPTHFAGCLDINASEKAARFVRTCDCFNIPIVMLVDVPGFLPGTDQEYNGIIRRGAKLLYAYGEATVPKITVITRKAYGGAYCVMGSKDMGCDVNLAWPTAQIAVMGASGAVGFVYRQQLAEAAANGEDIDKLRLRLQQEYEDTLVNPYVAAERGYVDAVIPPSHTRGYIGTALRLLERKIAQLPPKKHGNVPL

Compound: Oc1c(Cl)cc(C(c2cc(Cl)c(O)c(Cl)c2)C(c2cc(Cl)c(O)c(Cl)c2)c2cc(Cl)c(O)c(Cl)c2)cc1Cl [NCI-172033]
- IC50 [1]: ~8 µM
- IC50 [2]: 78 µM
